Assay results: PMC5428354, “Screening of a natural compound library identifies emodin, a natural compound from Rheum palmatum Linn that inhibits DPP4” (PeerJ, 2017)
Read-outs that look alike come from different tables or passages of the source.

Target: DPP4 (Homo sapiens, UniProt P27487)
Test: DPP4 activity assay (DPP4 inhibitor screening assay kit, Cayman);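 also: fluorescence read at excitation 360 nm and emission 460 nm after the enzyme reaction ran 30 min at 37 °C in a 96-well plate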
Assay type: biochemical
Set-up: purchased Cayman Chemical, Ann Arbor, MI, USA
Settings: control mean 100.0; for remaining activity at 10 µM: 0.5 h
[1] = 10 µM, Figure 1A raw data, read-out: DPP4 activity in library screen, Exp 1
[2] = 10 µM, Figure 1A raw data, read-out: DPP4 activity in library screen, Exp 2
[3] = 10 µM, Figure 1A raw data, read-out: DPP4 activity in library screen, Exp 3
[4] = 10 µM, mean of Exp 1-3, read-out: DPP4 activity in library screen, Mean

Chain of DPP4 (P27487 whole entry): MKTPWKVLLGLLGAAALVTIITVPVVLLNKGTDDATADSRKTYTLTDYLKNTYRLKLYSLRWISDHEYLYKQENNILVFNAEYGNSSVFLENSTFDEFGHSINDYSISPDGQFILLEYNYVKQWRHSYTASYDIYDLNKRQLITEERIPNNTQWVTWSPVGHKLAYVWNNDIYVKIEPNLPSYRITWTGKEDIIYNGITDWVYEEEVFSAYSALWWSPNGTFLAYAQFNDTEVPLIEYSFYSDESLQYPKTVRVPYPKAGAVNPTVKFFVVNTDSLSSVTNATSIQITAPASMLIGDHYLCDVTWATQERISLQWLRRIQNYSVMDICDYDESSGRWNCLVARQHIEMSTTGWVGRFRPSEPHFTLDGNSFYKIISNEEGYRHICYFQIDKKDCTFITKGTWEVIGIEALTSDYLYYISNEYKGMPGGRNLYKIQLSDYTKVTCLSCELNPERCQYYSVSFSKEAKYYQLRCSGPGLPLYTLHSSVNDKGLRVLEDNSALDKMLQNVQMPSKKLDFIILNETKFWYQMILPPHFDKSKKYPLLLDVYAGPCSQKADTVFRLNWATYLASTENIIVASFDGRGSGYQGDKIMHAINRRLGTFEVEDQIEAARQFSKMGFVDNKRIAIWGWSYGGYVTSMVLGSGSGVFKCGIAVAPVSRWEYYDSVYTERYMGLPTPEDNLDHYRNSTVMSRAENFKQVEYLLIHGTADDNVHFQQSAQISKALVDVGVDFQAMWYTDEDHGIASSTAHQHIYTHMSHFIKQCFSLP

Row | remaining activity at 10 µM [1] | remaining activity at 10 µM [2] | remaining activity at 10 µM [3] | remaining activity at 10 µM [4] | SMILES | other results
1 | 81% | 85.4% | 96.9% | 87.8% | C=C1C(=O)[C@]23[C@H](O)[C@H]1CC[C@H]2[C@@]12CO[C@]3(O)[C@@H](O)[C@@H]1C(C)(C)CC[C@@H]2O [Oridonin] | 
2 | 83.5% | 88% | 95.5% | 89% | O=C(O)c1cc(=O)[nH]c(=O)[nH]1 [Orotic acid (6-Carboxyuracil), Orotic acid] | 
3 | 93.1% | 95.2% | 87.3% | 91.9% | COc1ccc2ccc(=O)oc2c1CC=C(C)C [Osthole] | 
4 | 106% | 103% | 83.7% | 97.6% | O=C1CCC[C@@H]2[C@H]3CCC[N+]4([O-])CCC[C@@H](CN12)[C@@H]34 (some centres unmarked) [Oxymatrine] | 
5 | 80.3% | 92.8% | 99.9% | 91% | COc1ccc(C(C)=O)c(O)c1 [Paeonol] | 
6 | 63.2% | 86.5% | 114% | 87.8% | O=C(CCc1ccc(O)cc1)c1c(O)cc(O)cc1O[C@@H]1O[C@H](CO)[C@@H](O)[C@H](O)[C@H]1O [Phlorizin] | 
7 | 67.7% | 60.2% | 77.8% | 68.6% | O=C(/C=C/C=C/c1ccc2c(c1)OCO2)N1CCCCC1 [Piperine] | 
8 | 89.6% | 81.3% | 70% | 80.3% | OC[C@H]1O[C@@H](Oc2cc(O)cc(/C=C/c3ccc(O)cc3)c2)[C@H](O)[C@@H](O)[C@@H]1O [Polydatin] | 
9 | 94.4% | 98% | 93.8% | 95.4% | O=c1c(-c2ccc(O)cc2)coc2c([C@@H]3O[C@H](CO)[C@@H](O)[C@H](O)[C@H]3O)c(O)ccc12 [Puerarin] | 
10 | 62.7% | 62.1% | 72.1% | 65.6% | O=c1c(O)c(-c2ccc(O)c(O)c2)oc2cc(O)cc(O)c12 [Quercetin] | 
11 | 103% | 99.8% | 104% | 102% | COc1cc2c(cc1OC)[C@@H]1Cc3ccc(OC)c(OC)c3CN1CC2 [Rotundine] | 
12 | 71.3% | 78.6% | 71.4% | 73.8% | O=c1c2ccccc2nc2n1CCc1c-2[nH]c2ccccc12 [Rutaecarpine] | 
13 | 78.7% | 73.8% | 50.1% | 67.5% | C[C@@H]1O[C@@H](OC[C@H]2O[C@@H](Oc3c(-c4ccc(O)c(O)c4)oc4cc(O)cc(O)c4c3=O)[C@H](O)[C@@H](O)[C@@H]2O)[C@H](O)[C@H](O)[C@H]1O [Rutin] | 
14 | 93.4% | 98.3% | 118% | 103% | C[C@H](NCc1ccc(OCc2cccc(F)c2)cc1)C(N)=O [Safinamide] | 
15 | 72% | 94.5% | 87.9% | 84.8% | OCc1ccccc1O[C@@H]1O[C@H](CO)[C@@H](O)[C@H](O)[C@H]1O [Salicin] | 
16 | 97.1% | 97.1% | 113% | 102% | OC[C@H]1O[C@@H](OCCc2ccc(O)cc2)[C@H](O)[C@@H](O)[C@@H]1O [Salidroside] | 
17 | 80.9% | 99.9% | 71.4% | 84.1% | C=C[C@](C)(O)CC[C@@H]1[C@@]2(C)CCCC(C)(C)[C@@H]2CC[C@@]1(C)O [Sclareol] | 

Second part, the molecule before the results:

Row | SMILES | remaining activity at 10 µM [1] | remaining activity at 10 µM [2] | remaining activity at 10 µM [3] | remaining activity at 10 µM [4] | other results
18 | CC1=C(CC/C(C)=C/CCC2=CC[C@H](C3=CC(=O)O[C@H]3O)O[C@H]2O)C(C)(C)CCC1 [Manoalide] | 102% | 112% | 125% | 113% | 
19 | C[C@H]1C(=O)O[C@@H]2CCN3CC=C(COC(=O)[C@](C)(O)[C@]1(C)O)[C@H]23 [Monocrotaline] | 70.9% | 95.8% | 85.1% | 83.9% | 
20 | O.O=c1c(O)c(-c2ccc(O)cc2O)oc2cc(O)cc(O)c12 [Morin Hydrate] |  |  |  |  | DPP4 activity in library screen, Exp 1 (10 µM, Figure 1A raw data): 79.5; DPP4 activity in library screen, Exp 2 (10 µM, Figure 1A raw data): 73.7; DPP4 activity in library screen, Exp 3 (10 µM, Figure 1A raw data): 79.4; DPP4 activity in library screen, Mean (10 µM, mean of Exp 1-3): 77.5
21 | O=c1c(O)c(-c2cc(O)c(O)c(O)c2)oc2cc(O)cc(O)c12 [Myricetin] |  |  |  |  | DPP4 activity in library screen, Exp 2 (10 µM, Figure 1A raw data): 57.5; DPP4 activity in library screen, Mean (10 µM, mean of Exp 1-3): 57.9
22 | CCn1cc(C(=O)O)c(=O)c2ccc(C)nc21 [Nalidixic acid] | 95.6% | 94.7% | 93.5% | 94.6% | 
23 | O=C1C[C@@H](c2ccc(O)cc2)Oc2cc(O)cc(O)c21 [Naringenin] | 80.4% | 87.5% | 94.1% | 87.3% | 
24 | C[C@@H]1O[C@@H](O[C@H]2[C@H](Oc3cc(O)c(C(=O)CCc4ccc(O)cc4)c(O)c3)O[C@H](CO)[C@@H](O)[C@@H]2O)[C@H](O)[C@H](O)[C@H]1O [Naringin Dihydrochalcone] |  |  |  |  | DPP4 activity in library screen, Exp 1 (10 µM, Figure 1A raw data): 84.3; DPP4 activity in library screen, Exp 2 (10 µM, Figure 1A raw data): 82.4; DPP4 activity in library screen, Exp 3 (10 µM, Figure 1A raw data): 91.6; DPP4 activity in library screen, Mean (10 µM, mean of Exp 1-3): 86.1
25 | C[C@@H]1O[C@@H](O[C@H]2[C@H](Oc3cc(O)c4c(c3)O[C@H](c3ccc(O)cc3)CC4=O)O[C@H](CO)[C@@H](O)[C@@H]2O)[C@H](O)[C@H](O)[C@H]1O [Naringin] | 116% | 82.6% | 68.6% | 89.2% | 
26 | COc1ccc(CCC(=O)c2c(O)cc(O[C@@H]3O[C@H](CO)[C@@H](O)[C@H](O)[C@H]3O[C@@H]3O[C@@H](C)[C@H](O)[C@@H](O)[C@H]3O)cc2O)cc1O [Neohesperidin dihydrochalcone (Nhdc), Neohesperidin dihydrochalcone] | 90.3% | 78% | 91.2% | 86.5% | 
27 | COc1ccc([C@@H]2CC(=O)c3c(O)cc(O[C@@H]4O[C@H](CO)[C@@H](O)[C@H](O)[C@H]4O[C@@H]4O[C@@H](C)[C@H](O)[C@@H](O)[C@H]4O)cc3O2)cc1O [Neohesperidin] |  |  |  |  | DPP4 activity in library screen, Exp 1 (10 µM, Figure 1A raw data): 93.8; DPP4 activity in library screen, Exp 2 (10 µM, Figure 1A raw data): 90.3; DPP4 activity in library screen, Exp 3 (10 µM, Figure 1A raw data): 71.8; DPP4 activity in library screen, Mean (10 µM, mean of Exp 1-3): 85.3
28 | COc1ccc(-c2cc(=O)c3c(OC)c(OC)c(OC)c(OC)c3o2)cc1OC [Nobiletin] | 81.7% | 69.9% | 67.6% | 73.1% | 
29 | COc1cc2c(cc1O)C[C@@H]1NCCc3cc(OC)c(O)c-2c31 [Norisoboldine] |  |  |  |  | DPP4 activity in library screen, Exp 1 (10 µM, Figure 1A raw data): 95.3; DPP4 activity in library screen, Exp 2 (10 µM, Figure 1A raw data): 99.3; DPP4 activity in library screen, Exp 3 (10 µM, Figure 1A raw data): 71; DPP4 activity in library screen, Mean (10 µM, mean of Exp 1-3): 88.5
30 | Cc1c(C(=O)NCCO)[n+]([O-])c2ccccc2[n+]1[O-] [Olaquindox] | 77.8% | 99.1% | 116% | 97.8% | 
31 | C/C=C1/[C@H](O[C@@H]2O[C@H](CO)[C@@H](O)[C@H](O)[C@H]2O)OC=C(C(=O)OC)[C@H]1CC(=O)OCCc1ccc(O)c(O)c1 [Oleuropein] | 117% | 101% | 93.4% | 104% | 
32 | COc1cc2c(cc1OC)-c1cc3ccc(OC)c(OC)c3c[n+]1CC2 [Palmatine chloride] |  |  |  |  | remaining activity at 10 µM (read-out: DPP4 activity in library screen, Exp 1, 10 µM, Figure 1A raw data): 49.5%; remaining activity at 10 µM (read-out: DPP4 activity in library screen, Exp 2, 10 µM, Figure 1A raw data): 48.9%; remaining activity at 10 µM (read-out: DPP4 activity in library screen, Exp 3, 10 µM, Figure 1A raw data): 43.9%; remaining activity at 10 µM (read-out: DPP4 activity in library screen, Mean, 10 µM, mean of Exp 1-3): 47.4%
33 | O=C(CCc1ccc(O)cc1)c1c(O)cc(O)cc1O [Phloretin] | 78.9% | 90.5% | 55.2% | 74.9% | 
34 | O=c1c(O)c(-c2ccc(O)c(O)c2)oc2cc(O)cc(O)c12 [Quercetin Dihydrate] |  |  |  |  | DPP4 activity in library screen, Exp 1 (10 µM, Figure 1A raw data): 59.9; DPP4 activity in library screen, Exp 2 (10 µM, Figure 1A raw data): 57; DPP4 activity in library screen, Exp 3 (10 µM, Figure 1A raw data): 57.1; DPP4 activity in library screen, Mean (10 µM, mean of Exp 1-3): 58.0
35 | COc1ccc([C@@]23Oc4cc(OC)cc(OC)c4[C@]2(O)[C@H](O)[C@H](C(=O)N(C)C)[C@H]3c2ccccc2)cc1 [Rocaglamide] | 100% | 100% | 94.9% | 98.5% | 
36 | CC1(C)CCC[C@]2(C)[C@H]3CC(=O)O[C@]3(C)CC[C@@H]12 [Sclareolide] |  |  |  |  | DPP4 activity in library screen, Exp 1 (10 µM, Figure 1A raw data): 95.1; DPP4 activity in library screen, Exp 2 (10 µM, Figure 1A raw data): 80.7; DPP4 activity in library screen, Exp 3 (10 µM, Figure 1A raw data): 80.2; DPP4 activity in library screen, Mean (10 µM, mean of Exp 1-3): 85.3
37 | c1cc2c(cc1[C@H]1OC[C@H]3[C@@H]1CO[C@@H]3c1ccc3c(c1)OCO3)OCO2 [Sesamin] | 93.7% | 90% | 85.5% | 89.7% | 
